Assay results published in PubChem BioAssay (NCI).
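Method: 48-hour compound exposure of cells in 96-well plates, five concentrations, linear interpolation of endpoints. The concentration for 50% growth inhibition is given as GI50. TGI is the concentration that stops growth completely.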

Assays:
Experiment in all cases: NCI tumour cell line growth inhibition, 48 h
SR leukemia = test system: SR leukemia
DU-145 prostate = test system: DU-145 prostate
A549 NSCLC = test system: A549 NSCLC
HL-60(TB) leukemia = test system: HL-60(TB) leukemia
OVCAR-5 ovarian = test system: OVCAR-5 ovarian
OVCAR-4 ovarian = test system: OVCAR-4 ovarian
PC-3 prostate = test system: PC-3 prostate
TK-10 renal = test system: TK-10 renal
UACC-62 melanoma = test system: UACC-62 melanoma
SN12C renal = test system: SN12C renal
HCC-2998 colon = test system: HCC-2998 colon
NCI-H226 lung = test system: NCI-H226 lung
HOP-92 NSCLC = test system: HOP-92 NSCLC
ACHN renal = test system: ACHN renal
NCI/ADR-RES ovarian = test system: NCI/ADR-RES ovarian
MOLT-4 leukemia = test system: MOLT-4 leukemia
U251 CNS = test system: U251 CNS
SNB-19 CNS = test system: SNB-19 CNS
COLO 205 colon = test system: COLO 205 colon
MCF7 breast = test system: MCF7 breast
HCT-116 colon = test system: HCT-116 colon
A498 renal = test system: A498 renal
RPMI-8226 leukemia = test system: RPMI-8226 leukemia
786-0 renal = test system: 786-0 renal
SK-MEL-5 melanoma = test system: SK-MEL-5 melanoma
NCI-H460 lung = test system: NCI-H460 lung
SF-295 CNS = test system: SF-295 CNS
SNB-75 CNS = test system: SNB-75 CNS
SW-620 colon = test system: SW-620 colon
KM12 colon = test system: KM12 colon
IGROV1 ovarian = test system: IGROV1 ovarian
UO-31 renal = test system: UO-31 renal
M14 melanoma = test system: M14 melanoma
MDA-MB-231 breast = test system: MDA-MB-231 breast
SF-268 CNS = test system: SF-268 CNS
SF-539 CNS = test system: SF-539 CNS
BT-549 breast = test system: BT-549 breast
MDA-MB-435 = test system: MDA-MB-435
HCT-15 colon = test system: HCT-15 colon
CAKI-1 renal = test system: CAKI-1 renal
OVCAR-8 ovarian = test system: OVCAR-8 ovarian
EKVX NSCLC = test system: EKVX NSCLC
NCI-H23 lung = test system: NCI-H23 lung
LOX IMVI melanoma = test system: LOX IMVI melanoma
RXF 393 renal = test system: RXF 393 renal
CCRF-CEM leukemia = test system: CCRF-CEM leukemia
MALME-3M melanoma = test system: MALME-3M melanoma
SK-MEL-28 melanoma = test system: SK-MEL-28 melanoma
T-47D breast = test system: T-47D breast
HOP-62 NSCLC = test system: HOP-62 NSCLC
K-562 leukemia = test system: K-562 leukemia
SK-OV-3 ovarian = test system: SK-OV-3 ovarian
NCI-H522 lung = test system: NCI-H522 lung
HT29 colon = test system: HT29 colon
HS 578T breast = test system: HS 578T breast
UACC-257 melanoma = test system: UACC-257 melanoma

`O=C(N/N=C\c1ccc(F)cc1)c1ccc2nc(-c3ccc(Br)cc3)[nH]c2c1` was tested, and the GI50 (SR leukemia) was 2.75 µM, the TGI (SR leukemia) was 8.79 µM and the GI50 (DU-145 prostate) was 2.07 µM. For the same compound, the TGI (DU-145 prostate) was 4.97 µM, the GI50 (A549 NSCLC) was 1.9 µM and the TGI (A549 NSCLC) was 3.7 µM. For the same compound, the GI50 (HL-60(TB) leukemia) was 14.6 µM, the TGI (HL-60(TB) leukemia) was > 100 µM and the GI50 (OVCAR-5 ovarian) was 2.28 µM. It also gave a TGI (OVCAR-5 ovarian) of 5.73 µM, a GI50 (OVCAR-4 ovarian) of 2.51 µM and a TGI (OVCAR-4 ovarian) of 7.13 µM. It also gave a GI50 (PC-3 prostate) of 1.79 µM, a TGI (PC-3 prostate) of 3.4 µM and a GI50 (TK-10 renal) of 2.59 µM. It also gave a TGI (TK-10 renal) of 5.48 µM, a GI50 (UACC-62 melanoma) of 2.69 µM and a TGI (UACC-62 melanoma) of 8.76 µM. It also gave a GI50 (SN12C renal) of 1.78 µM, a TGI (SN12C renal) of 3.63 µM and a GI50 (HCC-2998 colon) of 2.28 µM. It also gave a TGI (HCC-2998 colon) of 5.48 µM, a GI50 (NCI-H226 lung) of 2.62 µM and a TGI (NCI-H226 lung) of 16.6 µM. The GI50 (HOP-92 NSCLC) was 2.13 µM, the TGI (HOP-92 NSCLC) was 4.54 µM and the GI50 (ACHN renal) was 1.81 µM. For the same compound, the TGI (ACHN renal) was 3.69 µM, the GI50 (NCI/ADR-RES ovarian) was 7.97 µM and the TGI (NCI/ADR-RES ovarian) was > 100 µM. It also gave a GI50 (MOLT-4 leukemia) of 2.17 µM, a TGI (MOLT-4 leukemia) of 5.62 µM and a GI50 (U251 CNS) of 1.91 µM. It also gave a TGI (U251 CNS) of 3.38 µM, a GI50 (SNB-19 CNS) of 2.27 µM and a TGI (SNB-19 CNS) of 4.96 µM. It also gave a GI50 (COLO 205 colon) of 1.91 µM, a TGI (COLO 205 colon) of 4.43 µM and a GI50 (MCF7 breast) of 1.7 µM. The TGI (MCF7 breast) was 3.88 µM, the GI50 (HCT-116 colon) was 1.87 µM and the TGI (HCT-116 colon) was 3.95 µM. It also gave a GI50 (A498 renal) of 1.94 µM, a TGI (A498 renal) of 5.31 µM and a GI50 (RPMI-8226 leukemia) of 2.97 µM. It also gave a TGI (RPMI-8226 leukemia) of 9.39 µM, a GI50 (786-0 renal) of 2.03 µM and a TGI (786-0 renal) of 3.88 µM. For the same compound, the GI50 (SK-MEL-5 melanoma) was 3.25 µM, the TGI (SK-MEL-5 melanoma) was 13.4 µM and the GI50 (NCI-H460 lung) was 1.72 µM. It also gave a TGI (NCI-H460 lung) of 3.27 µM, a GI50 (SF-295 CNS) of 2.18 µM and a TGI (SF-295 CNS) of 5.24 µM. It also gave a GI50 (SNB-75 CNS) of 1.87 µM, a TGI (SNB-75 CNS) of 4.41 µM and a GI50 (SW-620 colon) of 1.9 µM. The TGI (SW-620 colon) was 3.76 µM, the GI50 (KM12 colon) was 3.2 µM and the TGI (KM12 colon) was 15.1 µM. The GI50 (IGROV1 ovarian) was 1.88 µM, the TGI (IGROV1 ovarian) was 3.89 µM and the GI50 (UO-31 renal) was 1.6 µM. For the same compound, the TGI (UO-31 renal) was 3.31 µM, the GI50 (M14 melanoma) was 2.08 µM and the TGI (M14 melanoma) was 4.52 µM. It also gave a GI50 (MDA-MB-231 breast) of 1.93 µM, a TGI (MDA-MB-231 breast) of 4.49 µM and a GI50 (SF-268 CNS) of 3.26 µM. It also gave a TGI (SF-268 CNS) of 13 µM, a GI50 (SF-539 CNS) of 1.74 µM and a TGI (SF-539 CNS) of 3.42 µM. For the same compound, the GI50 (BT-549 breast) was 2.34 µM, the TGI (BT-549 breast) was 6.08 µM and the GI50 (MDA-MB-435) was 1.96 µM. The TGI (MDA-MB-435) was 4.12 µM, the GI50 (HCT-15 colon) was 2.19 µM and the TGI (HCT-15 colon) was 5.08 µM. The GI50 (CAKI-1 renal) was 2.2 µM, the TGI (CAKI-1 renal) was 5.41 µM and the GI50 (OVCAR-8 ovarian) was 1.98 µM. It also gave a TGI (OVCAR-8 ovarian) of 4.14 µM, a GI50 (EKVX NSCLC) of 2.09 µM and a TGI (EKVX NSCLC) of 4.8 µM. It also gave a GI50 (NCI-H23 lung) of 1.88 µM, a TGI (NCI-H23 lung) of 3.67 µM and a GI50 (LOX IMVI melanoma) of 1.74 µM. For the same compound, the TGI (LOX IMVI melanoma) was 3.54 µM, the GI50 (RXF 393 renal) was 1.74 µM and the TGI (RXF 393 renal) was 3.53 µM. For the same compound, the GI50 (CCRF-CEM leukemia) was 3.5 µM, the TGI (CCRF-CEM leukemia) was 32.1 µM and the GI50 (MALME-3M melanoma) was 1.65 µM. For the same compound, the TGI (MALME-3M melanoma) was 3.43 µM, the GI50 (SK-MEL-28 melanoma) was 1.86 µM and the TGI (SK-MEL-28 melanoma) was 3.8 µM. The GI50 (T-47D breast) was 1.78 µM, the TGI (T-47D breast) was 3.92 µM and the GI50 (HOP-62 NSCLC) was 1.86 µM. The TGI (HOP-62 NSCLC) was 3.72 µM, the GI50 (K-562 leukemia) was 2.73 µM and the TGI (K-562 leukemia) was 8.09 µM. The GI50 (SK-OV-3 ovarian) was 2.09 µM, the TGI (SK-OV-3 ovarian) was 5.17 µM and the GI50 (NCI-H522 lung) was 1.78 µM. It also gave a TGI (NCI-H522 lung) of 3.96 µM, a GI50 (HT29 colon) of 1.85 µM and a TGI (HT29 colon) of 3.47 µM. For the same compound, the GI50 (HS 578T breast) was 2.04 µM, the TGI (HS 578T breast) was 5.39 µM and the GI50 (UACC-257 melanoma) was 2.03 µM. The TGI (UACC-257 melanoma) was 4.48 µM.
